This is an account of results in US9957219B2, “Antidiabetic bicyclic compounds” (Merck Sharp & Dohme Corp., priority 2013, dated 2018).

Test [1] concerns the target T1, Human GPR40 (Homo sapiens, UniProt O14842). The experiment in a line: FLIPR assay, agonist-induced calcium mobilization in GPR40/CHO NFAT BLA cells. The arrangement: expressed in transfected cells. It counts as cell-based. The procedure:
(§1) Human and mouse GPR40 stable cell-lines were generated in CHO cells stably expressing NFAT BLA (Beta-lactamase). A human GPR40 stable cell-line was generated in HEK cells stably expressing the acquorin expressing reporter. The expression plasmids were transfected using lipofectamine (Life Technologies) following manufacturer's instructions. Stable cell-lines were generated following drug selection.
FLIPR (Fluorimetric Imaging Plate Reader, Molecular Devices) assays were performed to measure agonist-induced calcium mobilization of the stable clones. For the FLIPR assay, one day before assay, GPR40/CHO NFAT BLA cells were seeded into black-wall-clear-bottom 384-well plates (Costar) at 1.4×10e4 cells/20 μL medium/well. The cells were incubated with 20 μl/well of the assay buffer (HBSS, 0.1% BSA, 20 mM HEPES, 2.5 mM probenecid, pH 7.4) containing 8 μM fluo-4, AM, 0.08% pluronic acid at room temperature for 100 minutes. Fluorescence output was measured using FLIPR. Compounds were dissolved in DMSO and diluted to desired concentrations with assay buffer. 13.3 μL/well of compound solution was added.

Test [2] has as its target T1, Human GPR40. The experiment in a line: Inositol Phosphate Turnover (IP1) assay in HEK cells stably expressing human GPR40. It counts as cell-based. Further details: expressed in transfected cells; host or cells: HEK cells stably expressing the aequorin reporter. The procedure: as §1
The assay was performed in 96-well format. HEK cells stably expressing human GPR40 were plated to be 60-80% confluent within 72 h. After 72 h, the plates were aspirated and the cells washed with inositol-free DMEM (ICN). The wash media was replaced with 150 μL of 3H-inositol labeling media (inositol-free media containing 0.4% human albumin or 0.4% mouse albumin, 1× pen/strep antibiotics, glutamine, 25 mM HEPES to which was added 3H-myo-inositol NEN #NET114A 1 mCi/mL, 25 Ci/mmol diluted 1:150 in loading media with a final specific radioactivity of 1 μCi/150 μL). Alternatively, the human and mouse albumin were added after the overnight labeling step before the addition of LiCl.
The assay was typically run the next day after 18 h labeling. On the day of the assay, 5 μL of 300 mM LiCl were added to all wells and incubated at 37 degrees for 20 min. 0.75 μL of 200× compounds were added and incubated with the cells for 60 min at 37 degrees. The media was then aspirated off and the assay terminated with the addition of 60 μL 10 mM formic acid. The cells were lysed for 60 min at room temperature. 15-30 μL of lysate was mixed with 70 μL/1 mg YSi SPA beads (Amersham) in clear bottom Isoplates. The plates were shaken for 2 h at room temperature. Beads were allowed to settle and the plates are counted in the Wallac Microbeta.

The EC50 is the midpoint of the concentration-response curve.

Structures are written as SMILES.

T1 sequence (O14842 whole entry): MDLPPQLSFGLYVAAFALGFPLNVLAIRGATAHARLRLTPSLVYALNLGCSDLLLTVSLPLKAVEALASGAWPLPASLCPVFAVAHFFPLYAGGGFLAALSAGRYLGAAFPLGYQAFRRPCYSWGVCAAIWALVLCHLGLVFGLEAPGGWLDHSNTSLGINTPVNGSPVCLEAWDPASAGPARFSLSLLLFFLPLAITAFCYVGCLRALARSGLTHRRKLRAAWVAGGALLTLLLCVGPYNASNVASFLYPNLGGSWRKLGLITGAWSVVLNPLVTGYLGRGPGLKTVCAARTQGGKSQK

Consider `COc1ccc(F)c(-c2cc3c(cc2F)[C@H](Oc2cccc([C@@H](CC(=O)O)C4CC4)c2)CC3)c1` [Example 39], for which the figures for the concentration for a half-maximal effect (EC50) in test [1] and in test [2] were 5 nM and 151 nM, respectively.

For `COc1ccc(F)c(-c2ccc3c(c2)CC[C@H]3Oc2cccc([C@H](C3CC3)[C@H](C)C(=O)O)c2F)c1` [Example 4], the EC50 in test [1] came to 0.2 nM; in test [2], 2.8 nM.

With `COc1ccc(F)c(-c2cc(F)c3c(c2)CC[C@H]3Oc2cccc([C@@H](CC(=O)O)C3CC3)c2)c1` [Example 31], the concentration giving a half-maximal response (EC50) in test [1] came to 36 nM; in test [2], 2160 nM.

In the case of `COc1ccc(F)c(-c2cc3c(cn2)[C@H](Oc2cccc([C@H](C4CC4)[C@H](C)C(=O)O)c2)CC3)c1` [Example 41], the EC50 in test [1] was less than 0.2 nM; in test [2], 15 nM.

Take `COc1ccc(F)c(-c2ccc3c(c2)CC[C@H]3Oc2cccc([C@H](C3CC3)[C@@H](C)C(=O)O)c2F)c1` [Example 5]: the half-maximal effective concentration (EC50) in test [1] was 8 nM; in test [2], 154 nM.

Turning to `COc1ccc(F)c(-c2ccc3c(c2C#N)CC[C@H]3Oc2cccc([C@@H](CC(=O)O)C3CC3)c2)c1` [Example 30], the values for the EC50 in test [1] and in test [2] were 22 nM and 412 nM, respectively.

Regarding `COc1ccc(F)c(-c2ccc3c(c2-c2cccc4ccn(C)c24)CC[C@H]3Oc2cccc([C@H](C3CC3)[C@H](C)C(=O)O)c2)c1` [Example 37], the concentration for a half-maximal effect (EC50) was 1 nM in test [1] and 145 nM in test [2].

In the case of `COc1ccc(F)c(-c2ccc3c(c2F)CC[C@H]3Oc2cccc([C@@H](CC(=O)O)C3CC3)c2)c1` [Example 34], the 50% effective concentration (EC50) amounted to 4 nM in test [1] and 107 nM in test [2].

Turning to `COc1ccc(F)c(-c2ccc3c(c2)CC[C@H]3Oc2cccc([C@H](C3CC3)[C@H](C)C(=O)O)c2)c1` [Example 2], the EC50 in test [1] turned out to be 0.4 nM; in test [2] it was 2.9 nM.

Regarding `COc1ccc(F)c(-c2ccc3c(n2)CC[C@H]3Oc2cccc([C@@H](CC(=O)O)C3CC3)c2)c1` [Example 38], the EC50 in test [1] worked out at 17 nM; in test [2] it was 895 nM.

With `COc1ccc(F)c(-c2cnc3c(c2)CC[C@H]3Oc2cccc([C@H](C3CC3)[C@H](C)C(=O)O)c2)c1` [Example 40], the concentration giving a half-maximal response (EC50) in test [1] stood at 2 nM; in test [2] it was 91 nM.

For the compound `COc1ccc(F)c(-c2ccc3c(c2)CC[C@H]3Oc2cccc([C@@H](CC(=O)O)C3CC3)c2)c1` [Example 1], the results for the EC50 in test [1] and in test [2] were 2 nM and 64 nM, respectively.

As to `COc1ccc(F)c(-c2ccc3c(c2F)CC[C@H]3Oc2cccc([C@H](C3CC3)[C@H](C)C(=O)O)c2)c1` [Example 32], the figures for the EC50 in test [1] and in test [2] were 0.4 nM and 4.5 nM, respectively.

For `COc1ccc(F)c(-c2ccc3c(c2Cl)CC[C@H]3Oc2cccc([C@@H](CC(=O)O)C3CC3)c2)c1` [Example 36], the concentration giving a half-maximal response (EC50) in test [1] is 7 nM; in test [2] it was 357 nM.

As to `COc1ccc(F)c(-c2cc3c(cc2F)[C@H](Oc2cccc([C@@H](CC(=O)O)C4CC4)c2)CC3)c1` [Example 33], the EC50 came to 12 nM in test [1] and 155 nM in test [2].

With `C[C@H](C(=O)O)[C@H](c1cccc(O[C@@H]2CCc3cc(-c4cc(O)ccc4F)ccc32)c1)C1CC1` [Example 35], the EC50 in test [1] came out at 0.2 nM; in test [2] it was 2.9 nM.
